How the values were obtained:
[1] = lipid pKa of cationic lipids

| pKa (physchem) | lipid pKa [1] | Structure (SMILES) |
| --- | --- | --- |
| ~6.7 |  | CCCCC/C=C\C/C=C\CCCCCCCCC1(CCCCCCCC/C=C\C/C=C\CCCCC)OCC(CCN(C)C)O1 (centres unmarked) [DLin-KC2-DMA, 2,2-Dilinoleyl-4-(2-dimethylaminoethyl)-[1,3]-dioxolane] |
|  | 6.8 | CCCCC/C=C\C/C=C\CCCCCCCCOCC(CN(C)C)OCCCCCCCC/C=C\C/C=C\CCCCC (centres unmarked) [DLinDMA] |

Source: patent US10583084B2, “Liposomal formulations for delivery of nucleic acids” (RAMOT AT TEL-AVIV UNIVERSITY LTD., priority 2014, dated 2020)
